The text below walks through data of PMC8624133, “10th Trends in Medical Mycology Held on 8 to 11 October 2021, Aberdeen, Scotland, Organized by the European Confederation of Medical Mycology (ECMM)” (Journal of Fungi, 2021).

Data set [1] has as its system clinical Trichophyton spp. isolates. Description: Checkerboard microdilution based on EUCAST. The following applies: for MIC: Trichophyton, read-out: geometric mean MIC, drug alone. It counts as cell-based. As for the experimental part: Materials & Methods: The combination has been tested against 9 terbinafine-susceptible and 7 terbinafine-resistant clinical Trichophyton spp. isolates from India. In vitro interactions were evaluated by a microdilution checkerboard technique based on the EUCAST reference method for antifungal susceptibility testing. The mode of interaction between terbinafine and itraconazole was determined by the fractional inhibitory concentration index (FICI). The FICI was interpreted as FICI ≤ 0.5 = synergy, FICI > 0.5–4 = no interaction, and FICI > 4.0 = antagonism.

The next data set has as its system Sporothrix brasiliensis. In words: Murine subcutaneous sporotrichosis model. The following applies: oral gavage once a day, 30 days; ITZ 50 mg/kg; DD 1, 5 or 10 mg/kg. Type of data set: in vivo, Balb/c mice. As for the experimental part:
Materials & Methods: 50 Balb/c mice, male, five to seven-week-old, were subcutaneous infected (left footpad) by a clinical isolate of S. brasiliensis (5.4 × 10^7 yeast/mice). Treatments started seven days post-inoculation (p.i) in all five groups (10 mice/each): G1 control group (placebo—receiving just the diluent of the drugs), G2 treatment group (itraconazole—ITZ 50 mg/kg); G3 to G5 DD treatment groups, 1, 5 and 10 mg/kg, respectively. All mice were treated once a day by oral gavage, for 30 consecutive days. Physical conditions and behavior were daily evaluated, and individual weight was weekly determined. At the 32nd day p.i. (48 h after the end of the treatments) animals were euthanasied and lung, liver, brain, kidneys, testicle and footpad were recovered aseptically and homogenized to mycological analysis. Fungal burden in each organ was measured by quantitatively counting colony-forming units (CFU). The determination of colony forming units (CFU)/gram of tissue (g) of S. brasiliensis in internal organs of groups were compared by non-parametric tests using Kruskal-Wallis combined with Wilcoxon. The weight loss assay was calculated considering the percentage of loss and/or increase between the value corresponding to the fungal inoculation day and to the end of the treatment.

In a further data set the test system is yeasts. Description: CLSI M27-A3 MIC. It counts as cell-based.
A further data set concerns eumycetoma. Conditions: in vivo; cited from earlier work. An excerpt:
Mycetoma: Mycetoma is a chronic, progressive, implantation inflammatory disease characterised by severe and stigmatising deformities, disability, and high morbidity. The disease is caused by fungi (eumycetoma) and several Actinomycetales members (actinomycetoma). Its estimative global burden is 9000 cases. There are no robust epidemiological studies on mycetoma in SA, but it is tconsidered the third most prevalent endemic IM in SA, especially among low socioeconomic adult males living in rural areas from Argentina, Brazil, Colombia and Venezuela, where the principal agents are Madurella spp. a ...

The subject of data set [2] is clinical dermatophyte isolates. In words: Inhibition of dermatophyte biofilm formation. It counts as cell-based. As for the experimental part: Materials and Methods: The study population consisted of 50 dermatophyte isolates that were collected from 2019 to 2020 from patients referred to the two mycology laboratory of Shiraz, Iran. The isolates were identified by ITS gene region sequencing. The suspension (equivalent to 0.5 McFarland) of the isolates was used to evaluate the ability of the isolates to form biofilms and also the effect of itraconazole, terbinafine and griseofulvin at concentrations of 2–32 μg/mL on inhibiting biofilm formation. Two optical microscope and a scanning electron microscope were used to study the microscopic structure of biofilms formed on the surface of 96-well plate wells.

Data set [3] deals with Fusarium solani (FS) mature biofilms. In words: XTT biofilm damage assay. Type of data set: cell-based. As for the experimental part:
(§1) Materials & Methods: 10^5 cfu/mL of FS (n = 3) and SA (n = 3) BF-producing strains were incubated in RPMI at 37 °C for 48 h. PMN were isolated from healthy volunteers by dextran sedimentation/ficoll centrifugation. BF were incubated with PMN at effector-to-target ratio 5:1 alone or in combination with L-AMB (FS: 0.25/2/32 mg/L; SA: 0.25/1/16 mg/L) or VRC (FS: 8/64 mg/L; SA: 0.5/32 mg/L) at 37 °C/5% CO2 for 24 h. Antifungal activity was assessed by XTT reduction assay of metabolic activity. […] The % damage of the PMN+drug treatment was compared to that of PMN or drug alone by ANOVA (n = 8, p < 0.05).

The test system of data set [4] is Scedosporium apiospermum (SA) mature biofilms. Description: XTT biofilm damage assay. Type of data set: cell-based. As for the experimental part:
as §1

For a further data set, the system named is F. solani (FS) biofilms. Description: Mature biofilm damage, XTT metabolic reduction assay. Conditions: Fusarium solani, 24 h, read-out: BF MIC50.
The subject of another data set is Candida auris isolates. In words: microbe, parasite or virus in culture. The following applies: Candidozyma auris; […]; IQR given; read-out: median MIC. Type of data set: cell-based.
For data set [5], the system named is Candida albicans and C. glabrata. Type of data set: cell-based, Candida spp. The following applies: 20 women with RVVC.
The test system of data set [6] is C. parapsilosis SC isolates. Description: Candidemia survey Greece, susceptibility per hospital protocol. Type of data set: cell-based, Candida parapsilosis species complex.
For another data set, the system named is Candida isolates. Type of data set: cell-based, Candida spp. The following applies: E-Test strips.
The test system of data set [7] is CgCDR1, CgCDR2 and CgSNQ2 genes. Description: Real-time PCR of ATP-binding cassette transporter genes. It counts as cell-based, Candida glabrata.
For another data set, the system named is C. tropicalis. It counts as cell-based, Candida tropicalis. Conditions: all successive strains.
Setting [8] is: 7 terbinafine-resistant isolates.
Where [9] appears, read: 9 terbinafine-susceptible isolates.

Values after ≈ are worked out from the molar mass of the structure shown. Where two headings read alike, the source gives them in different places. Some results are limits rather than exact numbers.

Take `CCC(C)n1ncn(-c2ccc(N3CCN(c4ccc(OCC5COC(Cn6cncn6)(c6ccc(Cl)cc6Cl)O5)cc4)CC3)cc2)c1=O` (centres unmarked) [itraconazole]: the figures for the “MIC range, drug alone” value in [1] (setting [8]) and in data set [1] (setting [9]) were 0.0625 to 0.5 µg/mL and 0.125 to 0.5 µg/mL, respectively. Further, the MIC in data set [1] (setting [8]) was 0.19 µg/mL; in data set [1] (setting [9]), 0.3 µg/mL; against yeasts (four sensitive isolates) it was 0.03 µg/mL (≈ 0.0425 µM); in the data set on yeasts (the other isolates, drug resistance), 0.06 to 16 µg/mL (≈ 0.085 to 22.7 µM). Moreover, in the data set with Sporothrix brasiliensis, the “fungal burden of internal organs vs placebo group” value is on record as “lower fungal burden”. Further, the Cure rate with eumycetoma was 25–35%. The IC50 in data set [2] (inhibition of biofilm formation, read-out: mean concentrations of IC50) was 3.78 µg/mL (≈ 5.36 µM). For the same compound, the “samples with IC50 in concentration <2” value in data set [2] (tested at 2–32 μg/mL) is 70%.
With `C[C@@H](c1ncncc1F)[C@](O)(Cn1cncn1)c1ccc(F)cc1F` [voriconazole], the MIC50 in data set [3] (Fusarium solani, read-out: BF MIC50 (≥50% BF damage), XTT, 24 h, 37 °C) was greater than 256 µg/mL; in [4] (Scedosporium apiospermum, read-out: BF MIC50 (≥50% BF damage), XTT, 24 h, 37 °C), 32 µg/mL; in the data set with F. solani (FS) biofilms, greater than 256 µg/mL. Besides, the “interaction of drug+PMN vs drug alone” value in [3] (VRC 64 mg/L, PMN 5:1) is listed as “antagonism”. Further, the BF damage amounted to 69.5 ± 3% in data set [4] (VRC 32 mg/L + PMN 5:1) and 61 ± 4% in [4] (VRC 32 mg/L alone).
As for `OC(Cn1cncn1)(Cn1cncn1)c1ccc(F)cc1F` [fluconazole], the MIC in the data set on Candida auris isolates was found to be 48 µg/mL (≈ 157 µM). Besides, the “in vitro resistant pathogens” value in [5] came to 45%. The compound further registered a Resistance in data set [6] of 20%. Moreover, the “increase of clearance per 100 g increase in actual bodyweight” value (in vivo) turned out to be 16%. Also, the “decrease of clearance per 10 µmol/L increase in creatinine concentration” value (once postnatal age was above 1 week) was 12%. Also, the volume of distribution (one-compartment model, typical infant of 0.87 kg) is 0.844 L. In addition, the estimated clearance (one-compartment model, typical infant of 0.87 kg, serum creatinine 60 µmol/L, 41 preterm neonates, 146 plasma samples) is reported as 0.0147 L/h. Besides, the “comparative effectiveness among antifungals” value with Candida isolates was “most effective antifungal”. In addition, the “expression of CgCDR1, CgCDR2 and CgSNQ2 genes” value in data set [7] is given as “over-expressed”. The susceptibility category result with C. tropicalis is listed as “susceptible”.
